{
  "source": "patent US20220202899A1",
  "about": "“COMPOSITION FOR PREVENTION OR TREATMENT OF HAIR LOSS INCLUDING HAPLN1” (HAPLNSCIENCE INC., priority 2019, published 2022)",
  "key": {"TβRII": {"test_system": "TβRII", "test": "TβRII protein in human hair germinal matrix cells deficient in endogenous HA (4-MU)", "assay_type": "cell-based", "conditions": "4-MU-treated cells; HAPLN1 25 ng/mL; TGF-β2 2 ng/mL", "method": "(§1) 4-MU (4-methylumbelliferone) is an inhibitor of HA-producing hyaluronan synthase 2 (HAS2), which produces HA. In order to confirm the effect of HA produced in cells, HA production in cells was inhibited using 4-MU.\n(§2) The human hair germinal matrix cells, in which the endogenous HA was inhibited by treating 4-MU, were dispensed into a poly-D-lysine 6-well plate at a concentration of 5.0×10^4 per well and cultured for 24 hours. After 24 hours, the medium was removed and replaced with a new serum-free medium. HAPLN1 was treated with 25 ng/mL, and after 1 hour, TGF-β2 (2 ng/mL) was treated. After 23 hours, cells were collected, a lysis buffer (25 mM Tris-HCl, 1 mM EDTA, 0.1% Triton-X100, phosphatase inhibitor, and protease inhibitor) was added, and all the cells were broken through sonication. HAS2 and TβRII in the sample were measured using Western blotting. The optical density of each of HAS2 and TβRII was compared to that of GAPDH using a densitometer."}, "HAS2": {"test_system": "HAS2", "test": "HAS2 protein in human hair germinal matrix cells deficient in endogenous HA (4-MU)", "assay_type": "cell-based", "conditions": "4-MU-treated cells; HAPLN1 25 ng/mL; TGF-β2 2 ng/mL", "method": "as §1, §2"}},
  "data": [
    {"molecule": "Cc1cc(=O)oc2cc(O)ccc12", "note": "[4-MU, 4-methylumbelliferone, reference compound]", "values": [
      {"measurement": "TβRII level", "setting": "TβRII", "value": "decreased"},
      {"measurement": "HAS2 level", "setting": "HAS2", "value": "decreased"}
    ]}
  ]
}
